Legend:
Nilaparvata lugens = assay: Insecticidal activity against Nilaparvata lugens (planthopper) by spraying; assay type: in vivo; details: 500 ppm; for mortality (%) (500 ppm) Nilaparvata lugens: spraying 2 ml, counted after 24 hours; for mortality (%) (500 ppm) Nilaparvata-lugens: spraying 2 ml per tumbler, killed counted after 24 hours
Summary of the method: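 Ten planthoppers per tumbler were introduced 6 hours before spraying with 2 ml of test solution, with clean water as blank control. Each treatment had 3 replicates, and three series were run. Mortality was counted after 24 hours.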

Aphis craccivoral = assay: Insecticidal activity against Aphis craccivoral by immersing (dipping aphids on bean sprout); assay type: in vivo; details: 23° C.
Summary of the method: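 Wingless adult A. craccivora feeding on bean sprouts dipped 5 seconds in compound at 500 ug/mL (0.2 mL/L Triton X-100 aqueous), then held at 23 °C. Mortality counted after 24 hours, three replicates, vehicle-only control.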

[1] = 500 ppm, immersing (dipped 5 seconds), counted after 24 hours
[2] = 500 ppm (500 ug/mL dilution), dipped 5 seconds, killed aphis counted after 24 hours

SMILES	mortality (%) (500 ppm) Nilaparvata lugens (Nilaparvata lugens)	mortality (%) (500 ppm) Aphis (Aphis craccivoral; [1])	mortality (%) (500 ppm) Nilaparvata-lugens (Nilaparvata lugens)	mortality (%) (500 ppm) Aphis (Aphis craccivoral; [2])
O=C(OC1CCC([N+](=O)[O-])=C2N(Cc3ccc(Cl)nc3)CCN21)c1ccc(Cl)c(Cl)c1 (stereo not shown) [Compound 131]	0%	3%	–	–
CSC1CCC([N+](=O)[O-])=C2N(Cc3ccc(Cl)nc3)CCN21 (stereo not shown) [Compound 132]	100%	100%	–	–
CCSC1CCC([N+](=O)[O-])=C2N(Cc3ccc(Cl)nc3)CCN21 (stereo not shown) [Compound 133]	100%	100%	–	–
O=[N+]([O-])C1=C2N(Cc3ccc(Cl)nc3)CCN2C(SCC(F)(F)F)CC1 (stereo not shown) [Compound 135]	100%	98%	–	–
CCCSC1CCC([N+](=O)[O-])=C2N(Cc3ccc(Cl)nc3)CCN21 (stereo not shown) [Compound 136]	100%	100%	–	–
CC(C)SC1CCC([N+](=O)[O-])=C2N(Cc3ccc(Cl)nc3)CCN21 (stereo not shown) [Compound 137]	100%	89%	–	–
O=[N+]([O-])C1=C2N(Cc3ccc(Cl)nc3)CCN2C(SC(C(F)(F)F)C(F)(F)F)CC1 (stereo not shown) [Compound 138]	98%	45%	–	–
CCCCSC1CCC([N+](=O)[O-])=C2N(Cc3ccc(Cl)nc3)CCN21 (stereo not shown) [Compound 139]	78%	34%	–	–
CC(C)CSC1CCC([N+](=O)[O-])=C2N(Cc3ccc(Cl)nc3)CCN21 (stereo not shown) [Compound 140]	78%	67%	–	–
CCC(C)SC1CCC([N+](=O)[O-])=C2N(Cc3ccc(Cl)nc3)CCN21 (stereo not shown) [Compound 141]	89%	56%	–	–
CC(C)(C)SC1CCC([N+](=O)[O-])=C2N(Cc3ccc(Cl)nc3)CCN21 (stereo not shown) [Compound 142]	88%	67%	–	–
CCCCCSC1CCC([N+](=O)[O-])=C2N(Cc3ccc(Cl)nc3)CCN21 (stereo not shown) [Compound 143]	34%	23%	–	–
CCC(C)SC1CCC([N+](=O)[O-])=C2N(Cc3ccc(Cl)nc3)CCN21 (stereo not shown) [Compound 144]	56%	12%	–	–
CC(C)CCSC1CCC([N+](=O)[O-])=C2N(Cc3ccc(Cl)nc3)CCN21 (stereo not shown) [Compound 145]	78%	67%	–	–
CCCC(C)SC1CCC([N+](=O)[O-])=C2N(Cc3ccc(Cl)nc3)CCN21 (stereo not shown) [Compound 146]	97%	35%	–	–
CC(C)(C)CSC1CCC([N+](=O)[O-])=C2N(Cc3ccc(Cl)nc3)CCN21 (stereo not shown) [Compound 147]	99%	56%	–	–
COCCSC1CCC([N+](=O)[O-])=C2N(Cc3ccc(Cl)nc3)CCN21 (stereo not shown) [Compound 148]	89%	67%	–	–
CCOCCSC1CCC([N+](=O)[O-])=C2N(Cc3ccc(Cl)nc3)CCN21 (stereo not shown) [Compound 149]	100%	98%	–	–
CC(=O)OC1CCC([N+](=O)[O-])=C2N(Cc3cnc(Cl)s3)CCN21 (stereo not shown) [Compound 152]	0%	3%	–	–
CCC(=O)OC1CCC([N+](=O)[O-])=C2N(Cc3cnc(Cl)s3)CCN21 (stereo not shown) [Compound 153]	38%	29%	–	–
O=C(OC1CCC([N+](=O)[O-])=C2N(Cc3cnc(Cl)s3)CCN21)C(Cl)(Cl)Cl (stereo not shown) [Compound 154]	100%	93%	–	–
O=C(OC1CCC([N+](=O)[O-])=C2N(Cc3cnc(Cl)s3)CCN21)C(F)(F)F (stereo not shown) [Compound 155]	90%	48%	–	–
CS(=O)(=O)OC1CCC([N+](=O)[O-])=C2N(Cc3cnc(Cl)s3)CCN21 (stereo not shown) [Compound 156]	92%	78%	–	–
O=[N+]([O-])C1=C2N(Cc3cnc(Cl)s3)CCN2C(OS(=O)(=O)C(F)(F)F)CC1 (stereo not shown) [Compound 157]	100%	56%	–	–
O=[N+]([O-])C1=C2N(Cc3cnc(Cl)s3)CCN2C(OS(=O)(=O)c2ccccc2)CC1 (stereo not shown) [Compound 158]	7%	6%	–	–
O=C(OC1CCC([N+](=O)[O-])=C2N(Cc3cnc(Cl)s3)CCN21)c1cccnc1 (stereo not shown) [Compound 159]	8%	0%	–	–
O=C(OC1CCC([N+](=O)[O-])=C2N(Cc3cnc(Cl)s3)CCN21)c1ccccn1 (stereo not shown) [Compound 160]	8%	4%	–	–

SMILES	mortality (%) (500 ppm) Nilaparvata lugens (Nilaparvata lugens)	mortality (%) (500 ppm) Aphis (Aphis craccivoral; [1])	mortality (%) (500 ppm) Nilaparvata-lugens (Nilaparvata lugens)	mortality (%) (500 ppm) Aphis (Aphis craccivoral; [2])
O=C(OC1CCC([N+](=O)[O-])=C2N(Cc3cnc(Cl)s3)CCN21)c1ccccc1 (stereo not shown) [Compound 161]	5%	3%	–	–
O=C(OC1CCC([N+](=O)[O-])=C2N(Cc3cnc(Cl)s3)CCN21)c1cc(F)c(Cl)cc1Cl (stereo not shown) [Compound 164]	78%	59%	–	–
O=C(OC1CCC([N+](=O)[O-])=C2N(Cc3cnc(Cl)s3)CCN21)c1ccc(C(F)(F)F)cc1 (stereo not shown) [Compound 165]	–	–	100%	90%
O=C(OC1CCC([N+](=O)[O-])=C2N(Cc3cnc(Cl)s3)CCN21)c1cc(F)c(F)cc1F (stereo not shown) [Compound 166]	–	–	45%	0%
O=C(OC1CCC([N+](=O)[O-])=C2N(Cc3cnc(Cl)s3)CCN21)c1cc(F)c(F)c(F)c1F (stereo not shown) [Compound 167]	–	–	4%	12%
O=C(OC1CCC([N+](=O)[O-])=C2N(Cc3cnc(Cl)s3)CCN21)c1ccccc1F (stereo not shown) [Compound 168]	–	–	100%	56%
O=C(OC1CCC([N+](=O)[O-])=C2N(Cc3cnc(Cl)s3)CCN21)c1cc(F)c(F)c([N+](=O)[O-])c1F (stereo not shown) [Compound 169]	–	–	13%	2%
O=C(OC1CCC([N+](=O)[O-])=C2N(Cc3cnc(Cl)s3)CCN21)c1ccc(Cl)c(Cl)c1 (stereo not shown) [Compound 170]	–	–	0%	2%
CSC1CCC([N+](=O)[O-])=C2N(Cc3cnc(Cl)s3)CCN21 (stereo not shown) [Compound 171]	–	–	100%	97%
CCSC1CCC([N+](=O)[O-])=C2N(Cc3cnc(Cl)s3)CCN21 (stereo not shown) [Compound 172]	–	–	100%	100%
O=[N+]([O-])C1=C2N(Cc3cnc(Cl)s3)CCN2C(SCC(F)(F)F)CC1 (stereo not shown) [Compound 174]	–	–	100%	67%
CCCSC1CCC([N+](=O)[O-])=C2N(Cc3cnc(Cl)s3)CCN21 (stereo not shown) [Compound 175]	–	–	100%	89%
CC(C)SC1CCC([N+](=O)[O-])=C2N(Cc3cnc(Cl)s3)CCN21 (stereo not shown) [Compound 176]	–	–	98%	78%
CCCCSC1CCC([N+](=O)[O-])=C2N(Cc3cnc(Cl)s3)CCN21 (stereo not shown) [Compound 178]	–	–	12%	23%
CC(C)CSC1CCC([N+](=O)[O-])=C2N(Cc3cnc(Cl)s3)CCN21 (stereo not shown) [Compound 179]	–	–	56%	12%
CCC(C)SC1CCC([N+](=O)[O-])=C2N(Cc3cnc(Cl)s3)CCN21 (stereo not shown) [Compound 180]	–	–	78%	34%
CC(C)(C)SC1CCC([N+](=O)[O-])=C2N(Cc3cnc(Cl)s3)CCN21 (stereo not shown) [Compound 181]	–	–	78%	45%
CCCCCSC1CCC([N+](=O)[O-])=C2N(Cc3cnc(Cl)s3)CCN21 (stereo not shown) [Compound 182]	–	–	87%	67%
CC(C)CCSC1CCC([N+](=O)[O-])=C2N(Cc3cnc(Cl)s3)CCN21 (stereo not shown) [Compound 183]	–	–	34%	23%
CCCC(C)SC1CCC([N+](=O)[O-])=C2N(Cc3cnc(Cl)s3)CCN21 (stereo not shown) [Compound 184]	–	–	35%	12%
CC(C)(C)CSC1CCC([N+](=O)[O-])=C2N(Cc3cnc(Cl)s3)CCN21 (stereo not shown) [Compound 185]	–	–	86%	36%
COCCSC1CCC([N+](=O)[O-])=C2N(Cc3cnc(Cl)s3)CCN21 (stereo not shown) [Compound 186]	–	–	100%	97%
N=C1CCC([N+](=O)[O-])=C2N(Cc3ccc(Cl)nc3)CCN12 [Compound 188]	–	–	67%	55%
CN=C1CCC([N+](=O)[O-])=C2N(Cc3ccc(Cl)nc3)CCN12 [Compound 189]	–	–	100%	100%
CCN=C1CCC([N+](=O)[O-])=C2N(Cc3ccc(Cl)nc3)CCN12 [Compound 190]	–	–	100%	89%
O=[N+]([O-])C1=C2N(Cc3ccc(Cl)nc3)CCN2C(=NCCCl)CC1 [Compound 191]	–	–	78%	53%

— patent publication US7655665B2, “Nitromethylene derivatives and their use” (East China University of Science and Technology, priority 2004, dated 2010)
